Measurements from patent US20130295672A1, “STEM CELL CULTURE MEDIA AND METHODS” (CONSEJO SUPERIOR DE INVESTIGACIONES CIENTÍFICAS, priority 2010, published 2013).

What was measured:
Assay type in all cases: cell-based, human
[1] = test system: APRIL and BAFF secretion in hASC; experiment: ELISA of APRIL and BAFF concentrations in hASC medium
Experimental: FIG. 4. Modulation of APRIL and BAFF in hASC. Immunosuppressive effect (A): hASC cells were cultured with 100 ng/ml APRIL (light grey bar), BAFF (dark grey bar) or no stimulus (white bar) and then stimulated with 1 μg/ml LPS or poly I:C. […] Data were acquired using a FACScalibur cytometer and analyzed using FCAP array software (BD Bioscience). (B): Immunosupression assay: Allogeneic hASCs were cultured with activated CFSE labelled PBLs at a ratio of 1:25 (hASC: PBLs) in the presence or absence of BAFF or APRIL (100 ng/ml). After 5 days cells were harvested, analyzed by flow cytometry in a FACScalibur cytometer (BD Bioscience) and acquired for CFSE. Percentage of proliferating cells (relative to PBLs alone) in the last two generations is shown. Mean and standard deviation of experiments with 6 different buffy coats are represented. Buffy coats were provided by the National Transfusion Centre of the Comunidad Autónoma of Madrid. PBLs were isolated by density centrifugation gradient using Ficollplaque Plus (GE Healthcare Biosciences AB, Uppsala) (C): hASC cells were cultured with IFNγ. Supernatants were collected five days later. […] IL-6 and IL-8 concentration in the medium after 48 h, was measured by the Cytometric Bead Array (CBA) immunoassay (BD Bioscience) following manufacturer instructions. Data were acquired using a FACScalibur cytometer and analyzed using FCAP array software (BD Bioscience). […] Supernatants were collected five days later. APRIL and BAFF concentrations in the medium were determined by ELISA (R&D Systems for BAFF, Bender MedSystem for APRIL).

hASC [2] = experiment: MTS assay (CellTiter AQueous One Solution Cell Proliferation Assay), hASC viability/growth; conditions: for hASC growth in MTS assay, considering basal growth 100%: 100 ng/ml, 6 days in culture, normalized to cells without stimuli (100%); for promotion of cell growth when ERK was inhibited: with ERK inhibitor U0126, effect kept when PI3K was inhibited
Experimental: (§1) FIG. 2. APRIL and BAFF enhance hASC viability and proliferation. (A): Cell viability was assessed by the CellTiter AQueous One Solution Cell Proliferation Assay (Promega, Madison, Wis.) according to manufacturer's protocols. hASC (3.5×10^3 cells/well) were cultured for 6 days in 96-well plates with 100 ng/ml APRIL or BAFF. Absorbance (OD 490 nm) was measured in an ELISA plate reader (n=at least three experiments). Values were normalized to the absorbance of cells cultured without stimuli (100%). (B): Histograms show cell proliferation measured by a […] BrdU incorporation assay. hASC were cultured in p60 plates with 100 ng/ml APRIL or BAFF; BrdU (20 μM) was added for the last three days. At day 6, BrdU incorporation was detected by flow cytometry using an anti-BrdU antibody. Numerals indicate percentage of cells positive for BrdU and, therefore, actively proliferating. Cell viability was assessed by the CellTiter AQueous One Solution Cell Proliferation Assay (Promega, Madison, Wis.) according to manufacturer's protocols. hASC (3.5×10^3 cells/well) were cultured for 6 days in 96-well plates with 100 ng/ml APRIL or BAFF. Absorbance (OD 490 nm) was measured in an ELISA plate reader (n=at least three experiments). Values were normalized to the absorbance of cells cultured without stimuli (100%). Additionally, cell proliferation was measured by a colorimetric BrdU incorporation assay. hASC were cultured in p60 plates with 100 ng/ml APRIL or BAFF; BrdU (20 μM) was added for the last three days. At day 6, BrdU incorporation was detected by flow cytometry using an anti-BrdU antibody. Three independent MTS and BrdU assays were performed and triplicates included for each condition.

PBMC proliferation = experiment: Immunosuppression assay: proliferation of activated CFSE-labeled PBMC with allogeneic hASC; conditions: 100 ng/ml, day 5
Experimental: FIG. 4. Modulation of APRIL and BAFF in hASC. Immunosuppressive effect (A): hASC cells were cultured with 100 ng/ml APRIL (light grey bar), BAFF (dark grey bar) or no stimulus (white bar) and then stimulated with 1 μg/ml LPS or poly I:C. […] Data were acquired using a FACScalibur cytometer and analyzed using FCAP array software (BD Bioscience). (B): Immunosupression assay: Allogeneic hASCs were cultured with activated CFSE labelled PBLs at a ratio of 1:25 (hASC: PBLs) in the presence or absence of BAFF or APRIL (100 ng/ml). After 5 days cells were harvested, analyzed by flow cytometry in a FACScalibur cytometer (BD Bioscience) and acquired for CFSE. […]
For CFSE labeling, freshly purified PBMC (10-20×106) were washed extensively to remove FBS, resuspended in 200 μl of a 10 μM CFSE solution (Sigma), and incubated with constant shaking (37° C., 10 min) Cells were washed and cultured overnight, and one aliquot was used to set up and control FL-1 voltage for CFSE in the cytometer. […] At day 5, PBMC were harvested and cell proliferation was determined according to loss of CFSE in the FL-1 channel. Data were analyzed using Cellquest-Pro software on gated lymphocytes (based on forward scatter/side scatter properties). The percentage of proliferating lymphocytes was calculated by gating in the region (M1) of the FL-1 channel corresponding to the last 48 h of culture ([…]). […]

[3] = test system: indoleamine 2,3-dioxygenase (IDO); experiment: IDO induction in hASC; conditions: BAFF/APRIL activation of hASC
JNK, IκBα or p38 = experiment: Western blot phosphorylation kinetics in stimulated hASC: JNK, IκBα, p38
[4] = test system: HLA-I, HLA-II, CD80 and CD86 expression; experiment: Flow cytometry of hASC activation molecules; conditions: APRIL or BAFF activation
Experimental: hASCs were harvested, stained with appropriate fluorochrome-coupled antibodies and measured by flow cytometry (BD FACS Calibur). Data were analyzed using the FlowJo program (TreeStar, Ashland, Oreg.).

Akt = experiment: Western blot phosphorylation kinetics in stimulated hASC: Akt; conditions: 100 ng/ml, 10-120 min
Experimental: (§2) FIG. 3. APRIL and BAFF-mediated signaling in hASC. hASC were stimulated with 100 ng/ml APRIL or BAFF (10, 30, 60, 120 min, 37° C.), placed on ice, washed with ice-cold PBS, and lysed with cell lysis buffer (Roche, Indianapolis, Ind.). Extracts were quantified by absorbance, resolved in SDS-PAGE and analyzed by immunoblot. Antibodies used were anti-phospho-Akt (Ser473), -Akt, -phospho-ERK1/2 (Thr202/Tyr204), and -ERK1/2) (BD Bioscience); secondary antibodies were horseradish peroxidase-conjugated bovine anti-rabbit and goat anti-mouse IgG. (B): Histograms show cell proliferation measured by BrdU incorporation as in (FIG. 2B), with addition of the ERK inhibitor U0126 (2.5 μM; Sigma) or the PI3K inhibitor LY294002 (10 μM; Calbiochem) to the culture on days 0 and 3. […]
(§3) hASC were stimulated with 100 ng/ml APRIL or BAFF (10, 30, 60, 120 min, 37° C.), placed on ice, washed with ice-cold PBS, and lysed with cell lysis buffer (Roche, Indianapolis, Ind.). Extracts were quantified by absorbance, resolved in SDS-PAGE and analyzed by immunoblot. […]
(§4) Plated hASC (1.5×10^4 cells/cm2) were stimulated with APRIL or BAFF (100 ng/ml) and lysed with lysis buffer (Roche) with protease and phosphatase inhibitors. Proteins in extracts were quantified by absorbance with the BCA protein assay kit (Pierce), and equal amounts of protein homogenate resolved in SDS-PAGE, and transferred to PVDF membranes (Millipore). […]

ERK1/2 = experiment: Western blot phosphorylation kinetics in stimulated hASC: ERK1/2; conditions: 100 ng/ml, 10-120 min
Experimental: as §2, §3, §4

hASC [5] = experiment: BrdU incorporation assay by flow cytometry, hASC proliferation; conditions: 100 ng/ml, day 6, BrdU for the last three days; control 13%
Experimental: as §1, with “Additionally, cell proliferation was measured by a colorimetric BrdU incorporation assay. hASC were cultured in p60 plates with 100 ng/ml APRIL or BAFF; BrdU (20 μM) was added for the last three days.” left out, “Three independent MTS and BrdU assays were performed and triplicates included for each condition.” left out

[6] = MTS assay (CellTiter AQueous One Solution Cell Proliferation Assay), hASC viability/growth; conditions: human, hASC cells; no APRIL/BAFF; control 100%; read-out: basal hASC growth in MTS assay with inhibitor added to medium
Experimental: as §1

[7] = 10, 30, 100 ng/ml, supernatants after five days

Molecule: poly I:C [reference compound]
- induction of APRIL or BAFF secretion by TLR ligand ([1]; hASC activated with LPS or poly I:C): Neither ligand induced

Molecule: N#CC(=C(/N)Sc1ccccc1N)/C(C#N)=C(\N)Sc1ccccc1N [U0126, reference compound]
- decrease in basal hASC growth (MTS assay), result in words (hASC [2]; inhibitor added to medium, no APRIL/BAFF): but not ERK inhibitor

Molecule: BAFF: recombinant protein from R&D Systems; TNF ligand binding BCMA, TACI and BAFF-R
- effect on ability of hASC to suppress PBMC proliferation (PBMC proliferation): did not alter
- hASC growth in MTS assay, considering basal growth 100% (hASC [2]): 140%
- promotion of cell growth when ERK was inhibited (hASC [2]): did not promote cell growth
- induction of IDO [3]: did not induce
- phosphorylation of JNK, IκBα or p38 (JNK, IκBα or p38): no clear effect
- effect on hASC expression of HLA-I, HLA-II, CD80 and CD86 [4]: do not affect
- phosphorylation of Akt (Akt): induced rapid phosphorylation
- phosphorylation of ERK1/2 (ERK1/2): induced rapid phosphorylation
- percentage of BrdU-positive cells (hASC [5]): 29.4%

Molecule: CXCL12: cytokine from Peprotech; enhances APRIL secretion
- APRIL secretion by hASC [1, 7]: preferentially enhances APRIL

Molecule: APRIL: recombinant protein from R&D Systems; TNF ligand binding BCMA and TACI
- effect on ability of hASC to suppress PBMC proliferation (PBMC proliferation): did not alter
- hASC growth in MTS assay, considering basal growth 100% (hASC [2]): 114%
- promotion of cell growth when ERK was inhibited (hASC [2]): did not promote cell growth
- induction of IDO [3]: did not induce
- phosphorylation of JNK, IκBα or p38 (JNK, IκBα or p38): no clear effect
- effect on hASC expression of HLA-I, HLA-II, CD80 and CD86 [4]: do not affect
- phosphorylation of Akt (Akt): induced rapid phosphorylation
- phosphorylation of ERK1/2 (ERK1/2): induced rapid phosphorylation
- percentage of BrdU-positive cells (hASC [5]): 27.5%

Molecule: O=c1cc(N2CCOCC2)oc2c(-c3ccccc3)cccc12 [LY294002, reference compound]
- viability at 6 days [6]: 60.3%

B1: IFN-γ: cytokine from Peprotech; inducer of BAFF (protein, UniProt P01579 24-161, looked up)
Interferon gamma: QDPYVKEAENLKKYFNAGHSDVADNGTLFLGILKNWKEESDRKIMQSQIVSFYFKLFKNFKDDQSIQKSVETIKEDMNVKFFNSNKKKRDDFEKLTNYSVTDLNVQRKAIHELIQVMAELSPAAKTGKRKRSQMLFRG
- BAFF secretion by hASC [1, 7]: promotes BAFF secretion
